Experimental data from publication PMC12261219, “Comparative Evaluation of Thiol- and Amine-Conjugating Moieties for Endogenous Albumin Binding after Intravenous Administration” (ACS Pharmacology & Translational Science, 2025).
Values joined by “and” are separate entries in the source; they are usually repeats but may differ in a detail not shown here. Identical values can stand only once.

How the values were obtained:
IgG = test: SEC-ICP-MS with single serum protein solution: IgG; format: binding, human; conditions: 200 μM IgG, 100 μM compound, 100 mM PB pH 7.4, 37 °C, 2 h
Method: (§1) All investigated proteins were purchased from commercial suppliers: Albumin (Sigma-Aldrich, A8763), IgG (Athens Research, 16–16–090707), α1-antitrypsin (Sigma-Aldrich, A6150) and apotransferrin (Sigma-Aldrich, T1147). […] The compound stocks were diluted into the protein solution to reach a final concentration of 100 μM (27 μL protein and 3 μL compound). The samples were incubated at 37 °C for 2 h and analyzed as described for the SEC-ICP-MS studies (Tables S6 and S7).

α1-antitrypsin = molecular target: T1, α1-antitrypsin (Homo sapiens, UniProt P01009); test: SEC-ICP-MS with single serum protein solution: α1-antitrypsin; format: binding; conditions: 200 μM α1-antitrypsin, 100 μM compound, 100 mM PB pH 7.4, 37 °C, 2 h
T1 construct: purchased Sigma-Aldrich A6150
T1 sequence (P01009 25-418): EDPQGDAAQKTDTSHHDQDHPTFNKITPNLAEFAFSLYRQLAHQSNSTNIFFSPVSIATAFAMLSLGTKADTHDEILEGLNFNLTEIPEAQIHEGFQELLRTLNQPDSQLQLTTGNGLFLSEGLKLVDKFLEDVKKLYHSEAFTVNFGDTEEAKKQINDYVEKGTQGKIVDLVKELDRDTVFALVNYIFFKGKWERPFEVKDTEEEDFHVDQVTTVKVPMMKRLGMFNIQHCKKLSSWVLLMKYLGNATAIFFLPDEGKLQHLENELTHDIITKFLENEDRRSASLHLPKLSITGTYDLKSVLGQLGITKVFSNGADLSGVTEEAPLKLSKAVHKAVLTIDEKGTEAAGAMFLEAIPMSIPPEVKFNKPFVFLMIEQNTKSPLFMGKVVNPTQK
Method: as §1

[1] = Hydrolytic stability in buffer (HPLC); format: physicochemical; conditions: 0.5 mM
Method: The samples were incubated at 20 °C and measured over 25 h. Reversed phase high-performance liquid chromatography (RP-HPLC) runs were performed using a Waters Acquity UPLC BEH C18 column (130 Å, 1.7 μm, 3 mm × 50 mm) on a Dionex Thermo Scientific UltiMate 3000 HPLC system, equipped with a HPG-3400RS binary pump and a DAD-3000 UV–vis detector. Chromatograms were evaluated at a wavelength of 220 nm. Milli-Q water (mobile phase A) and acetonitrile (mobile phase B), both containing 0.1% TFA, were used as eluents. The flow rate was consistent at 0.6 mL/min for all measurements using the following gradient: 0–0.5 min A 95:5 B, 0.5–5.5 min linear gradient to A 5:95 B, 5.5–6.5 min A 5:95 B, 6.5–9.2 min A 95:5 B. The same conditions were applied for stability measurements in 100 mM PB at pH 5.5 and 6.5 as well as in 20 mM HEPES and MOPS at pH 7.4. RP-HPLC-MS analyses of the same samples after the stability measurements were conducted on a Waters Acquity UPLC BEH C18 column (130 Å, 1.7 μm, 3 mm × 50 mm) on an Agilent 1260 Infinity II system equipped with a Flexible pump, a 1260 VWD UV–vis detector and the LC–MSD system. Chromatograms were evaluated at a wavelength of 220 nm. Milli-Q water (mobile phase A) and acetonitrile (mobile phase B), both containing 0.1% formic acid, were used as eluents. The flow rate was consistent at 0.6 mL/min for all measurements using the following gradient: 0–0.5 min A 95:5 B, 0.5–6.0 min linear gradient to A 5:95 B, 6.0–7.0 min A 5:95 B, 7.0–7.1 min linear gradient to A 95:5 B, 7.1–8.0 min A 95:5 B.

[2] = Serum pharmacokinetics (platinum, ICP-MS) in CT26-bearing Balb/c mice
Method: CT26 cells (5 × 10^5 in 50 μL serum-free medium) were injected subcutaneously (s.c.) into the right flank of male Balb/c mice. […] The blood, tumor and organ collection followed the study design in Figure A. Briefly, to assess serum platinum levels, blood was collected after 5 min, 30 min, 5 h and 24 h (2 mice per time point) via the facial vein. The serum was separated by centrifugation (two times 10 min at 900 g) after 10 min clotting at room temperature. […] All collected samples were stored at −20 °C and further processed for platinum measurements via ICP-MS as follows: HNO3 (67–69%, suprapur for trace metal analysis, NORMATOM; Distributor: VWR international, Austria) and conc. H2O2 suprapur (Merck, 30%) were used without further purification. Digestion of tissue (approximately 15–30 mg gravimetrically weighted) was performed with 2 mL of approximately 20% HNO3 and 100 μL H2O2 using an open vessel graphite digestion system (coated graphite heating plate, coated sample holder-top for 25 mL vials, PFA vials and PFA lids; Labter, ODLAB; Distributor: AHF Analysentechnik AG; Germany). Digested samples were diluted in Milli-Q water (18.2 MΩ cm, Milli-Q Advantage, Darmstadt, Germany). For the ICP-MS analysis, platinum and rhenium standards were derived from CPI International (Amsterdam, The Netherlands). The total platinum content was determined with a quadrupole-based Agilent 7800 ICP-MS instrument (Agilent Technologies, Tokyo, Japan) equipped with the Agilent SPS 4 autosampler (Agilent Technologies, Tokyo, Japan) and a MicroMist nebulizer at a sample uptake rate of approximately 0.2 mL/min. An RF power of 1550 W was used as well as nickel cones. Argon was used as plasma gas (15 L/min) and as carrier gas (∼1.1 L/min). The dwell time was set to 0.1 s and the measurements were performed in 6 replicates with 100 sweeps. Rhenium served as internal standard for platinum. The Agilent MassHunter software package (Workstation Software, version C.01.04) was used for data processing.
As platinum was measured in serum, equimolar administered doses were adjusted to correspond to platinum (0.0227 mmol, 4.42 mg platinum). The area under the “concentration”–time curve (AUC) was determined from time 0 to infinity (AUCPt_0‑∞) and from time 0 to 24 h (AUCPt_0–24, based on the last observed sample at 24 h; linear-log trapezoidal calculation method). The terminal slope (λ z ) was determined based on the last two (out of four) measurements (times 5 h and 24 h).

[3] = Reduction with ascorbic acid, release of oxaliplatin (HPLC); format: physicochemical; conditions: 0.5 mM, 150 mM PB, pH 7.4, 20 °C, 30 eq. ascorbic acid
Method: The samples were incubated at 20 °C and measured over 25 h. […] RP-HPLC runs were performed using a Waters Acquity UPLC HSS T3 column (100 Å, 1.8 μm, 3.0 mm × 50 mm) on a Dionex Thermo Scientific UltiMate 3000 HPLC system, equipped with a HPG-3400RS binary pump and a DAD-3000RS UV–vis detector. Chromatograms were evaluated at a wavelength of 230 nm. Milli-Q water (mobile phase A) and acetonitrile (mobile phase B), both containing 0.1% TFA, were used as eluents. The flow rate was consistent at 0.6 mL/min for all measurements using the following gradient: 0–0.5 min A 99:1 B, 0.5–5.5 min linear gradient to A 1:99 B, 5.5–6.5 min A 1:99 B, 6.5–9.2 min A 99:1 B.

albumin (mouse serum) = molecular target: T2, albumin (mouse serum) (Mus musculus, UniProt P07724); test: SEC-ICP-MS albumin binding in mouse serum; format: in vitro ADME; conditions: 100 µM, 37 °C
T2 construct: The serum was separated by centrifugation (two times 10 min at 900 g) after 10–20 min clotting at room temperature; from tissue; host or cells: serum of Balb/c mice
T2 sequence (P07724 25-608): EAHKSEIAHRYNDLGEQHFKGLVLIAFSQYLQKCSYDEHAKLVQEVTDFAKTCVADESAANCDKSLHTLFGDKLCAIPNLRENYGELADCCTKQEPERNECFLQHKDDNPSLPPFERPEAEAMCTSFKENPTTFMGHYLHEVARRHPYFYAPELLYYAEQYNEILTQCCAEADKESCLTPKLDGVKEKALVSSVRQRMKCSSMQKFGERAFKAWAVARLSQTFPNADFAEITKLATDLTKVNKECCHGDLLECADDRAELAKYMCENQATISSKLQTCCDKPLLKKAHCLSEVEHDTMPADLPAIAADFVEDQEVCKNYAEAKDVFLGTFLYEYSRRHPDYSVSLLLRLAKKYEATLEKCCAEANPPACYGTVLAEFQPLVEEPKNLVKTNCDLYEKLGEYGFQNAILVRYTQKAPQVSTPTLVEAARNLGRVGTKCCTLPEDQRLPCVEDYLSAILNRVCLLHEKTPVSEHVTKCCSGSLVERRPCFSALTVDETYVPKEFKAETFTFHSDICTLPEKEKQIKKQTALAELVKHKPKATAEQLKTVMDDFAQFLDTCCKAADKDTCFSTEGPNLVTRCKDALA
Method: Blood of Bab/c mice was collected under anesthesia via heart puncture. […] Human serum was purchased from Sigma-Aldrich. In order to guarantee a stable pH, all sera were buffered with 150 mM phosphate to pH 7.4 by dissolving the necessary amounts of Na2HPO4 and NaH2PO4 directly in the serum. […] The samples were then incubated in the autosampler at 37 °C and analyzed every hour for 4 or 5 h and after 24 h. Between each sample a pure water blank was measured. For measurements with 10 min intervals the same procedure was followed, but the blank measurements were omitted. For SEC-ICP-MS measurements an Agilent 1260 Infinity system coupled to an Agilent 7800 ICP-HRMS equipped with a dynamic reaction cell was used. Oxygen (purity 5.5, Messer Austria GmbH, Gumpoldskirchen, Austria) was used as reaction gas.

[4] = pH 7.4, 10 min intervals, 0 min
[5] = pH 7.4, 10 min intervals, 10 min
[6] = pH 7.4, 10 min intervals, 20 min
[7] = pH 7.4, 10 min intervals, 30 min
[8] = pH 7.4, 10 min intervals, 40 min
[9] = pH 7.4, 10 min intervals, 50 min
[10] = pH 7.4, 10 min intervals, 60 min

## CC(=O)[O][Pt-2]12([O]C(=O)NCCOCCOCCOCCOc3ccc(-c4nnc(S(C)(=O)=O)o4)cc3)([NH2+][C@@H]3CCCC[C@H]3[NH2+]1)[O]C(=O)C(=O)[O]2 [PODS-Ox-OAc, (OC-6–34)-Acetato[(1R,2R)-1,2-cyclohexane-1,2-diamino][(2-(2-(2-(2-(4-(5-(methylsulfonyl)-1,3,4-oxadiazol-2-yl)-phenoxy)-ethoxy)-ethoxy)-ethoxy)-ethyl)-carbamato]-oxalato platinum(IV)]
IgG
  Platinum in the HMWF (protein-bound): less than 20%
α1-antitrypsin
  Platinum in the HMWF (protein-bound): ~30%
[1]; 20 mM HEPES, pH 7.4, 20 °C
  Intact compound after 25 h: 54%
[1]; 20 mM MOPS, pH 7.4, 20 °C
  Intact compound after 25 h: 76%
[1]; 100 mM PB, pH 5.5, 20 °C
  Intact compound after 25 h: 99%
[1]; 100 mM PB, pH 6.5, 20 °C
  Intact compound after 25 h: 94%
[1]; 100 mM PB, pH 7.4, 20 °C
  Intact compound after 25 h: 70%
[2]; at 5 and 30 min, i.v.
  Serum platinum level higher than after Mal-Ox-OAc treatment: about 50%
[2]; serum platinum, measured at tmax=0.08 h, single i.v. dose 4.42 mg/kg Pt
  Cmax: 52.5 mg/kg
[2]; serum platinum, tlast=24 h
  Percentage of AUCPt_0-∞ extrapolated from tlast to infinity: 25.5%
[2]; terminal half-life, serum platinum, i.v.
  Half-life: 13.6 h
[2]; total body clearance, serum platinum, single i.v. dose 4.42 mg/kg Pt
  CL: 0.00693 kg/h/kg
[2]; volume of distribution based on the terminal phase, serum platinum, i.v.
  Vz: 0.136 kg/kg
[3]
  Oxaliplatin detected (released) after 25 h: 9%
Albumin (mouse serum); [4]
  Pt195 in HMWF (albumin-bound): 34%
  Pt195 in LMWF: 66%
Albumin (mouse serum); [5]
  Pt195 in HMWF (albumin-bound): 59% and ~60%
  Pt195 in LMWF: 41%
Albumin (mouse serum); [6]
  Pt195 in HMWF (albumin-bound): 71%
  Pt195 in LMWF: 29%
Albumin (mouse serum); [7]
  Pt195 in HMWF (albumin-bound): 78%
  Pt195 in LMWF: 22%
Albumin (mouse serum); [8]
  Pt195 in HMWF (albumin-bound): 83%
  Pt195 in LMWF: 17%
Albumin (mouse serum); [9]
  Pt195 in HMWF (albumin-bound): 85%
  Pt195 in LMWF: 15%
Albumin (mouse serum); [10]
  Pt195 in HMWF (albumin-bound): 87%
  Pt195 in LMWF: 13%
Albumin (mouse serum); pH 7.4, 1 h intervals, 0 h
  Pt195 in HMWF (albumin-bound): 30%
  Pt195 in LMWF: 70%
Albumin (mouse serum); pH 7.4, 1 h intervals, 1 h
  Pt195 in HMWF (albumin-bound): 82% and ~80%
  Pt195 in LMWF: 18%
Albumin (mouse serum); pH 7.4, 1 h intervals, 2 h
  Pt195 in HMWF (albumin-bound): 80%
  Pt195 in LMWF: 20%
Albumin (mouse serum); pH 7.4, 1 h intervals, 3 h
  Pt195 in HMWF (albumin-bound): 80%
  Pt195 in LMWF: 20%
Albumin (mouse serum); pH 7.4, 1 h intervals, 4 h
  Pt195 in HMWF (albumin-bound): 79%
  Pt195 in LMWF: 21%
Albumin (mouse serum); pH 7.4, 1 h intervals, 24 h
  Pt195 in HMWF (albumin-bound): 80%
  Pt195 in LMWF: 20%
